The target in test [1] is T1, 5-LO (Homo sapiens, UniProt P09917).
T1 construct: incubating a test compound with heparinised human blood, prior to challenge with the calcium ionophore A23187; endogenous in cells; host or cells: heparinised human whole blood (blood cells)
T1 sequence (P09917 1-674): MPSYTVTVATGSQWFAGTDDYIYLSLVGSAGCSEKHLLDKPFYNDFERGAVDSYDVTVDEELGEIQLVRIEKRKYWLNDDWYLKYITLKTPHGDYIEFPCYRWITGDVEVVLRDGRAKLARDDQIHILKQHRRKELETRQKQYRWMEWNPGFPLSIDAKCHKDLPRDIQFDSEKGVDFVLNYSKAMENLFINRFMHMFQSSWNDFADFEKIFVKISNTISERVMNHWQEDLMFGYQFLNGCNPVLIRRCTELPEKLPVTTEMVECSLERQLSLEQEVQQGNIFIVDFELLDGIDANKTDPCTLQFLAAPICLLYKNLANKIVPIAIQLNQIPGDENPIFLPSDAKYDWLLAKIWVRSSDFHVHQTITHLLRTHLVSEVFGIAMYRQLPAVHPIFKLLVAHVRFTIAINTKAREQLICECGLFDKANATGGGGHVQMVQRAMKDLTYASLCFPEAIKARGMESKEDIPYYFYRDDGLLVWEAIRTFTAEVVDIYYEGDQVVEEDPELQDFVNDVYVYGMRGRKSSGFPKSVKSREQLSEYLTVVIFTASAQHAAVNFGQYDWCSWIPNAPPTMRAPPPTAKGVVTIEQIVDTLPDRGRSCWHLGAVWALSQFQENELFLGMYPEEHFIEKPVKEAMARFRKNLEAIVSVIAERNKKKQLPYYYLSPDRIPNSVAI
In words: Test a): in vitro heparinised human blood challenged with calcium ionophore A23187, radioimmunoassay of LTB₄. The format is cell-based. Particulars: A23187 challenge, read-out: IC₅₀ against LTB₄ in test (a). An excerpt:
As stated previously, the compounds of the formula I are inhibitors of the enzyme 5-LO. […] J. Pharmacol. 1985, 84, 34P) which involve the use of a protein-LTB₄ conjugate produced using the procedure of Young et alia (Prostaglandins, 1983, 26(4), 605-613). The effects of a test compound on the enzyme cyclooxygenase (which is involved in the alternative metabolic pathway for arachidonic acid and gives rise to prostaglandins, thromboxanes and related metabolites) may be measured at the same time using the specific radioimmunoassay for thromboxane B₂(TxB₂) described by Carey and Forder (see above). This test provides an indication of the effects of a test compound against 5-LO and also cyclooxygenase in the presence of blood cells and proteins. It permits the selectivity of the inhibitory effect on 5-LO or cyclooxygenase to be assessed. • b) An ex vivo assay system, which is a variation of test a) above, involving administration to a group of rats of a test compound (usually orally as the suspension produced when a solution of the test compound in dimethylsulphoxide is added to carboxymethylcellulose), blood collection, heparinisation, challenge with A23187 and radioimmunoassay of LTB₄ and TxB₂. This test provides an indication of the bioavailability of a test compound as an inhibitor of 5-LO or cyclooxygenase. • c) An in vivo system involving measuring the effects of a test compound administered orally against the liberation of LTB₄ induced by zymosan within an air pouch generated within the subcutaneous tissue of the back of male rats. The rats are anaesthetised and air pouches are formed by the injection of sterile air (20ml). A further injection of air (10ml) is similarly given after 3 days. At 6 days after the initial air injection the test compound is administered (usually orally as the suspension produced when a solution of the test compound in dimethylsulphoxide is added to hydroxypropylmethylcellulose), followed by the intrapouch injection of zymosan (1ml of a 1% suspension in physiological saline). After 3 hours the rats are killed, the air pouches are lavaged with physiological saline, and the specific radioimmunoassay described above is used to assay LTB₄ in the washings. This test provides an indication of inhibitory effects against 5-LO in an inflammatory milieu.

Test [2] concerns 5-LO. As to the kind of experiment: Test c): in vivo zymosan-induced LTB₄ liberation in subcutaneous air pouch. Particulars: oral, male rats, 3 hours. An excerpt:
As stated previously, the compounds of the formula I are inhibitors of the enzyme 5-LO. […] J. Pharmacol. 1985, 84, 34P) which involve the use of a protein-LTB₄ conjugate produced using the procedure of Young et alia (Prostaglandins, 1983, 26(4), 605-613). The effects of a test compound on the enzyme cyclooxygenase (which is involved in the alternative metabolic pathway for arachidonic acid and gives rise to prostaglandins, thromboxanes and related metabolites) may be measured at the same time using the specific radioimmunoassay for thromboxane B₂(TxB₂) described by Carey and Forder (see above). This test provides an indication of the effects of a test compound against 5-LO and also cyclooxygenase in the presence of blood cells and proteins. It permits the selectivity of the inhibitory effect on 5-LO or cyclooxygenase to be assessed. • b) An ex vivo assay system, which is a variation of test a) above, involving administration to a group of rats of a test compound (usually orally as the suspension produced when a solution of the test compound in dimethylsulphoxide is added to carboxymethylcellulose), blood collection, heparinisation, challenge with A23187 and radioimmunoassay of LTB₄ and TxB₂. […]

pIC50: −log10 of the molar value.

This is an account of results in patent EP0586229A1, “3-Hydroxy-3-(subst-akyl)-pyrrolidines as 5-lipoxygenase inhibitors” (ZENECA LIMITED, priority 1992, dated 1994).

As for `COC1(c2cc(F)cc(Sc3ccc4c(c3)CCC(=O)N4C)c2)CCN(CC(F)(F)F)C1` (stereo not shown) [Example 6, 3-[5-fluoro-3-(1-methyl-2-oxo-1,2,3,4-tetrahydroquinolin-6-ylthio)phenyl]-3-methoxy-1-(2,2,2-trifluoroethyl)pyrrolidine], on 5-LO [1], the pIC50 was 7.52. Besides, the “ED₅₀ versus LTB₄ in test (c)” value with 5-LO [2] was “approximately 1.5 mg/kg”.

Take `COC1(c2cc(F)cc(Sc3ccc(C(C)=NO)cc3)c2)CCN(CC(F)(F)F)C1` (stereo not shown) [Example 32, 3-{5-fluoro-3-[4-(1-hydroxyiminoethyl)phenylthio]phenyl}-3-methoxy-1-(2,2,2-trifluoroethyl)pyrrolidine]: at 5-LO [1], the pIC50 was 7.40. In addition, in the test on 5-LO [2], the “ED₅₀ versus LTB₄ in test (c)” value is “approximately 0.5 mg/kg”.

With `CCn1c(=O)ccc2cc(COc3cccc(C4(OC)CCN(CC(F)(F)F)C4)c3)ccc21` (stereo not shown) [Example 5, 3-[3-(1-ethyl-2-oxo-1,2-dihydroquinolin-6-ylmethoxy)phenyl]-3-methoxy-1-(2,2,2-trifluoroethyl)pyrrolidine], at 5-LO [1], the pIC50 was 7.05.

For `C#CCN1CCC(OC)(c2cccc(OCc3ccc4ccccc4c3)c2)C1` (stereo not shown) [Example 4, 3-methoxy-3-[3-(naphth-2-ylmethoxy)phenyl]-1-(prop-2-ynyl)pyrrolidine], the pIC50 on 5-LO [1] is 7.22.

As for `COC1(c2cccc(OCc3ccc4ccccc4c3)c2)CCN(C)C1` (stereo not shown) [Example 1, 3-methoxy-1-methyl-3-[3-(naphth-2-ylmethoxy)phenyl]pyrrolidine], the pIC50 on 5-LO [1] is 6.68.
